From patent US20160067295A1, “WALNUT EXTRACTS FOR NUTRACEUTICAL APPLICATIONS” (priority 2009, published 2016)

Experiments:
[1] = target: human blood (acetyl) cholinesterase (Homo sapiens, UniProt P22303); settings: for inhibition of acetyl cholinesterase (in words): 1 mg Phosphatidylcholine per ml test solution, FIG. 4, FIG. 5; for % activity of AchE: remaining activity within 5 minutes of incubation; for % activity of AchE / % inhibited part of activity of AchE: 1 mg/ml test solution; for % inhibited part of activity of AchE: within 5 minutes of incubation
Sequence of human blood (acetyl) cholinesterase (P22303 32-617 isoform P22303-2 limits assumed): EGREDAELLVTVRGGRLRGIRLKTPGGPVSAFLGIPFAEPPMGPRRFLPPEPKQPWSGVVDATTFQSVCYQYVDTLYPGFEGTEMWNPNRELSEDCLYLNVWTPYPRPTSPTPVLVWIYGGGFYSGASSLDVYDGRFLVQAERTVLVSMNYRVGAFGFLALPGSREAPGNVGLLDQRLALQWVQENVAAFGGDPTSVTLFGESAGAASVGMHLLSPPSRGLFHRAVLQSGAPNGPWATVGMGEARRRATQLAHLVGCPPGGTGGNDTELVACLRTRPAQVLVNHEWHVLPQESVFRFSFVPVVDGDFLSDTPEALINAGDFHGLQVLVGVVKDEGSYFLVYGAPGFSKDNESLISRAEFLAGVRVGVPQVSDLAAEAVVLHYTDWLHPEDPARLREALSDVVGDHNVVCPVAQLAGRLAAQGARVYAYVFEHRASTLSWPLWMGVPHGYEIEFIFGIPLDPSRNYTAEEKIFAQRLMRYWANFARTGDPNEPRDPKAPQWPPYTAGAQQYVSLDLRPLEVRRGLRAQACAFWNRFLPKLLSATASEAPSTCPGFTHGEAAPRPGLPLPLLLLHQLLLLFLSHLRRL

[2] = target: T1, Amyloid [A]β1-40 aggregates (Homo sapiens, UniProt P05067); experiment: Defibrillization assay: dissolution of already formed amyloid Aβ-aggregates (Thioflavin T fluorescence); type: biochemical; settings: 12 mg PC/ml test assay for walnut extracts, 12 mg PC Soy or PS Soy/ml; FIG. 3
T1 construct: Amyloid [A] β1-40 (Sigma-Aldrich, A 1075); purchased Sigma-Aldrich A 1075
T1 sequence (P05067 672-711 limits assumed): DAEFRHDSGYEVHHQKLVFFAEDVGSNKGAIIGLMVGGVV
Procedure: In this example, the highest concentrations of the walnut extracts (12 mg PC/ml test assay for the walnut extracts, 12 mg PC Soy or PS Soy/ml) were evaluated for their ability to reverse an already formed aggregate of amyloid-β.
Defibrillization efficacy is indicative for treatment of Alzheimer disease.
Dissolution of amyloid Aβ-aggregates by ES2008-021 and ES2008-022-Defibrillization assay
In a further extension of the test system, the above samples were evaluated for their ability to reverse an already formed aggregate of amyloid-β. Defibrillization efficacy is indicative for curing of Alzheimer disease.
Dissolution of amyloid Aβ-aggregates was induced by incubation with walnut extract. At each concentration of walnut extract (0.625, 1.25, 2.5, 5.0 or 7.5 μl ES2008-022 or 0.625, 1.25, 2.5, 5.0 or 7.5 μl from a stock solution containing 125 mg ES2008-021/ml) three samples were incubated and evaluated. […]
After 3 days each sample is mixed with 2 μM ([…]) Thioflavin T and 950 μl glycine/NaOH buffer (50 mM glycine, pH=9.0). Fluorescence was measured at ex 435 nm/em 485 nm.
Subtract fluorescence intensity for the corresponding “reagent blank samples” from each “active sample”. Compare the resulting fluorescence intensity with the fluorescence intensity measured for the control sample. […]

Substance	inhibition of acetyl cholinesterase (in words) [1]	% activity of AchE [1]	% inhibited part of activity of AchE [1]	defibrillization efficacy (in words) [2]
phosphatidylcholine [PC Soy Bean]	almost inactive	88.2%	11.8%	less potent in defibrillization
phosphatidylserine [PS Soy Bean]	almost inactive	94.0%	6.0%	less potent in defibrillization
